{
  "source": "patent US12589143B2",
  "about": "“Human anti-PD-L1 peptide vaccines and methods of their use” (priority 2019, dated 2026)",
  "tested_on": "MVF-PD-L1 peptide immunogen",
  "assay": "Immunogenicity in Balb/c mice, experiment 1 (CT26 WT): ELISA of sera vs each MVF-PD-L1 peptide immunogen",
  "type": "in vivo",
  "conditions": "for Immunogenicity (titers) 1′ Conc. 1:: Balb/c mice",
  "description": "Immunogenicity of MVF-PD-L1 B-cell epitopes. New Zealand White rabbits were immunized with 1 mg of each MVF-peptide immunogens dissolved in dd H2O emulsified (1:1) in Montanide ISA 720 vehicle (Seppic) with 333 μg of N-acetylglucosamine-3yl-acetyl-1-alanyl-d-isoglutamine (nor-MDP). Rabbits were boosted with the same doses at 3-week's intervals. Blood was collected via the central auricular artery in rabbits. Blood was collected weekly (1Y+3, 2Y+1, 2Y+2,2Y+3, 3Y+1, 3Y+2 and sera tested for antibody titers by ELISA using the immunogens MVF-PD-L1 peptides. Sera (terminal) from rabbit (3Y+3) immunized with MVF-PD-1 peptide immunogens were tested individually versus the immunogen by ELISA. 200 ng/well peptide were used in duplicates to coat the ELISA plates. Titers are defined as the highest dilution of sera with an absorbance value of 0.2 after subtracting the blank.\nFIGS. 5A, 5B, 5C, and 5D show the experimental scheme to test the immunization with PD-L1 in Balb/c mice. […] Balb/c mice 6-8 weeks old, were immunized with MVF-peptide immunogens emulsified in ISA 720 with nor-MDP three times and three weeks apart. Mice were immunized with MVF-PD-L1 vaccine constructs [PD-L1(36-53), PD-L1(50-67), PD-L1(95-112), PD-L1(130-147)] prior to tumor challenge. Blood was collected weekly and sera tested for antibody titers by ELISA. Two weeks after the third immunization (3Y), the mice were engrafted with CT26 WT tumor cells 10^5 per mouse Control mice were treated twice weekly with PBS as negative control and twice weekly with anti-mPD-L1 mAb (10F.9G2) as positive control starting 2 days after tumor challenge. Tumor growths were observed twice weekly and measured by calipers.\nImmunogenicity of MVF-PD-L1 peptides in BALB/c mice immunized with various peptide constructs. Sera collected weekly were tittered against each individual MVF-PD-L1 peptide immunogen. The Pink bar refers to titers versus PD-L1 130 and the red bar refers to titers versus PD-1 (92-110).\nIn order to verify the efficacy of the PD-L1 epitope vaccines in vivo in the CT26 carcinoma cell line, Balb/c mice (10 mice/group) were immunized with 100 μg each of MVF-PD-L1 (36-53), MVF-PD-L1 (50-67), MVF-PD-L1 (95-112) and MVF-PD-L1 (130-147) emulsified with nor-MDP and Montanide 720 (1:1 ratio) SCHEME 1A (FIG. 5A). As detailed in SCHEME 1A-D (FIGS. 5A, 5B, 5C, and 5D), mice were immunized 3 times at 3 weeks intervals. […] All PD-L1 epitopes elicited high titers of PD-L1 anti-peptide antibodies by ELISA. […] We also investigated the combination of PD-1(92-110) with PD-L1-130-147.\nFor each peptide, vaccine antibodies were raised in New Zealand white rabbits, purchased from Charles River Laboratories (Wilmington, MA, USA). Rabbits were immunized with 1 mg of MVF chimeric peptide emulsified in Montanide ISA 720 (Seppic, Paris, France) and boosted 3 times at three week intervals. For mouse experiments, mice, 6-8 weeks old, were immunized with 0.1 mg of peptide emulsified in ISA720 (1:1 ratio). Mice were boosted with the respective doses at 3-week intervals. Blood was then collected and sera were tested for antibody titers. Sera were collected weekly and peptide vaccine antibodies were purified by affinity chromatography using a protein A/G column and the concentration was measured using Spectrophometer. All experiments were performed in accordance with the U.S. Public Health Service Policy on Humane Care and Use of Laboratory animals and approved by the Ohio State University Institutional Animals Care and Use Committee, detailed in the accepted protocol.\n6-8 weeks old BALB/c mice (Charles River, Wilmington, MA) were used as standard animal models. Mouse CT26 colon carcinoma cell line was purchased from American Type Culture Collection Cells and were regularly cultured in RPMI1640 medium containing 10% FBS. CT26/HER2 cells were kindly provided by M. Penichet. Vaccines were dissolved in sterile water and emulsified in Montanide ISA 720 (1:1). […]",
  "note": "Several values for one entry are separate records, joined by “and”; a condition that tells them apart may be missing. Identical values can stand only once. Where no end group is shown, it is not given here.",
  "data": [
    {"sequence": "KLLSLIKGVIVHRLEGVEGPSLFVHGEEDLKVQHSSYRQR (KLLSLIKGVIVHRLEGVEGPSLFVHGEEDLKVQHSSYRQR-NH2) [PD-L1(50)]", "values": [
      {"measurement": "Immunogenicity (titers) 1′ Conc. 1:", "setting": "bleed 1Y + 3", "result": 6400},
      {"measurement": "Immunogenicity (titers) 1′ Conc. 1:", "setting": "bleed 2Y + 1", "result": 12800},
      {"measurement": "Immunogenicity (titers) 1′ Conc. 1:", "setting": "bleed 2Y + 2", "result": 12800},
      {"measurement": "Immunogenicity (titers) 1′ Conc. 1:", "setting": "bleed 2Y + 3", "result": 12800},
      {"measurement": "Immunogenicity (titers) 1′ Conc. 1:", "setting": "bleed 3Y + 1", "result": 128000},
      {"measurement": "Immunogenicity (titers) 1′ Conc. 1:", "setting": "bleed 3Y + 2", "result": 128000},
      {"measurement": "Immunogenicity (titers) 1′ Conc. 1:", "setting": "bleed 3Y + 3", "result": 128000},
      {"measurement": "ELISA absorbance of sera", "setting": "bleed 1Y + 3 (1to100), dilution 100, bleed 1Y + 3", "result": "1.459 and 1.424"},
      {"measurement": "ELISA absorbance of sera", "setting": "bleed 1Y + 3 (1to100), dilution 200, bleed 1Y + 3", "result": "1.338 and 1.282"},
      {"measurement": "ELISA absorbance of sera", "setting": "bleed 1Y + 3 (1to100), dilution 400, bleed 1Y + 3", "result": "1.131 and 1.099"},
      {"measurement": "ELISA absorbance of sera", "setting": "bleed 1Y + 3 (1to100), dilution 800, bleed 1Y + 3", "result": "0.878 and 0.852"},
      {"measurement": "ELISA absorbance of sera", "setting": "bleed 1Y + 3 (1to100), dilution 1,600, bleed 1Y + 3", "result": "0.639 and 0.588"},
      {"measurement": "ELISA absorbance of sera", "setting": "bleed 1Y + 3 (1to100), dilution 3,200, bleed 1Y + 3", "result": "0.398 and 0.365"},
      {"measurement": "ELISA absorbance of sera", "setting": "bleed 1Y + 3 (1to100), dilution 6,400, bleed 1Y + 3", "result": "0.239 and 0.213"},
      {"measurement": "ELISA absorbance of sera", "setting": "bleed 1Y + 3 (1to100), dilution 12,800, bleed 1Y + 3", "result": "0.143 and 0.129"},
      {"measurement": "ELISA absorbance of sera", "setting": "bleed 2Y + 1 (1to100), dilution 100, bleed 2Y + 1", "result": "1.243 and 1.292"},
      {"measurement": "ELISA absorbance of sera", "setting": "bleed 2Y + 1 (1to100), dilution 200, bleed 2Y + 1", "result": "1.279 and 1.274"},
      {"measurement": "ELISA absorbance of sera", "setting": "bleed 2Y + 1 (1to100), dilution 400, bleed 2Y + 1", "result": "1.241 and 1.170"},
      {"measurement": "ELISA absorbance of sera", "setting": "bleed 2Y + 1 (1to100), dilution 800, bleed 2Y + 1", "result": "1.127 and 1.002"},
      {"measurement": "ELISA absorbance of sera", "setting": "bleed 2Y + 1 (1to100), dilution 1,600, bleed 2Y + 1", "result": "0.923 and 0.887"},
      {"measurement": "ELISA absorbance of sera", "setting": "bleed 2Y + 1 (1to100), dilution 3,200, bleed 2Y + 1", "result": "0.721 and 0.666"},
      {"measurement": "ELISA absorbance of sera", "setting": "bleed 2Y + 1 (1to100), dilution 6,400, bleed 2Y + 1", "result": "0.480 and 0.471"},
      {"measurement": "ELISA absorbance of sera", "setting": "bleed 2Y + 1 (1to100), dilution 12,800, bleed 2Y + 1", "result": "0.332 and 0.274"},
      {"measurement": "ELISA absorbance of sera", "setting": "bleed 2Y + 2 (1to100), dilution 100", "result": "1.298 and 1.343"},
      {"measurement": "ELISA absorbance of sera", "setting": "bleed 2Y + 2 (1to100), dilution 200", "result": "1.310 and 1.286"},
      {"measurement": "ELISA absorbance of sera", "setting": "bleed 2Y + 2 (1to100), dilution 400", "result": "1.241 and 1.190"},
      {"measurement": "ELISA absorbance of sera", "setting": "bleed 2Y + 2 (1to100), dilution 800", "result": "1.144 and 1.093"},
      {"measurement": "ELISA absorbance of sera", "setting": "bleed 2Y + 2 (1to100), dilution 1,600", "result": "0.964 and 0.893"},
      {"measurement": "ELISA absorbance of sera", "setting": "bleed 2Y + 2 (1to100), dilution 3,200", "result": "0.741 and 0.670"},
      {"measurement": "ELISA absorbance of sera", "setting": "bleed 2Y + 2 (1to100), dilution 6,400", "result": "0.519 and 0.487"},
      {"measurement": "ELISA absorbance of sera", "setting": "bleed 2Y + 3 (1to1k), dilution 100", "result": "1.054 and 1.076"},
      {"measurement": "ELISA absorbance of sera", "setting": "bleed 2Y + 3 (1to1k), dilution 200", "result": "1.008 and 1.012"},
      {"measurement": "ELISA absorbance of sera", "setting": "bleed 2Y + 3 (1to1k), dilution 400", "result": "0.952 and 0.915"},
      {"measurement": "ELISA absorbance of sera", "setting": "bleed 2Y + 3 (1to1k), dilution 800", "result": "0.827 and 0.819"},
      {"measurement": "ELISA absorbance of sera", "setting": "bleed 2Y + 3 (1to1k), dilution 1,600", "result": "0.708 and 0.703"},
      {"measurement": "ELISA absorbance of sera", "setting": "bleed 2Y + 3 (1to1k), dilution 3,200", "result": "0.534 and 0.514"},
      {"measurement": "ELISA absorbance of sera", "setting": "bleed 2Y + 3 (1to1k), dilution 6,400", "result": "0.351 and 0.332"},
      {"measurement": "ELISA absorbance of sera", "setting": "bleed 3Y + 1 (1to1k), dilution 100, bleed 3Y + 1", "result": "1.191 and 1.215"},
      {"measurement": "ELISA absorbance of sera", "setting": "bleed 3Y + 1 (1to1k), dilution 200, bleed 3Y + 1", "result": "1.138 and 1.143"},
      {"measurement": "ELISA absorbance of sera", "setting": "bleed 3Y + 1 (1to1k), dilution 400, bleed 3Y + 1", "result": "1.076 and 1.034"},
      {"measurement": "ELISA absorbance of sera", "setting": "bleed 3Y + 1 (1to1k), dilution 800, bleed 3Y + 1", "result": "0.935 and 0.925"},
      {"measurement": "ELISA absorbance of sera", "setting": "bleed 3Y + 1 (1to1k), dilution 1,600, bleed 3Y + 1", "result": "0.800 and 0.794"},
      {"measurement": "ELISA absorbance of sera", "setting": "bleed 3Y + 1 (1to1k), dilution 3,200, bleed 3Y + 1", "result": "0.603 and 0.581"},
      {"measurement": "ELISA absorbance of sera", "setting": "bleed 3Y + 1 (1to1k), dilution 6,400, bleed 3Y + 1", "result": "0.397 and 0.375"},
      {"measurement": "ELISA absorbance of sera", "setting": "bleed 3Y + 2 (1to1k), dilution 100, bleed 3Y + 2", "result": "1.608 and 1.586"},
      {"measurement": "ELISA absorbance of sera", "setting": "bleed 3Y + 2 (1to1k), dilution 200, bleed 3Y + 2", "result": "1.503 and 1.479"},
      {"measurement": "ELISA absorbance of sera", "setting": "bleed 3Y + 2 (1to1k), dilution 400, bleed 3Y + 2", "result": "1.384 and 1.401"},
      {"measurement": "ELISA absorbance of sera", "setting": "bleed 3Y + 2 (1to1k), dilution 800, bleed 3Y + 2", "result": "1.185 and 1.213"},
      {"measurement": "ELISA absorbance of sera", "setting": "bleed 3Y + 2 (1to1k), dilution 1,600, bleed 3Y + 2", "result": "0.961 and 0.959"},
      {"measurement": "ELISA absorbance of sera", "setting": "bleed 3Y + 2 (1to1k), dilution 3,200, bleed 3Y + 2", "result": "0.684 and 0.694"},
      {"measurement": "ELISA absorbance of sera", "setting": "bleed 3Y + 2 (1to1k), dilution 6,400, bleed 3Y + 2", "result": 0.462},
      {"measurement": "ELISA absorbance of sera", "setting": "bleed 3Y + 3 (1to1k), dilution 100, bleed 3Y + 3", "result": "1.740 and 1.779"},
      {"measurement": "ELISA absorbance of sera", "setting": "bleed 3Y + 3 (1to1k), dilution 200, bleed 3Y + 3", "result": "1.596 and 1.638"},
      {"measurement": "ELISA absorbance of sera", "setting": "bleed 3Y + 3 (1to1k), dilution 400, bleed 3Y + 3", "result": "1.445 and 1.469"},
      {"measurement": "ELISA absorbance of sera", "setting": "bleed 3Y + 3 (1to1k), dilution 800, bleed 3Y + 3", "result": "1.181 and 1.217"},
      {"measurement": "ELISA absorbance of sera", "setting": "bleed 3Y + 3 (1to1k), dilution 1,600, bleed 3Y + 3", "result": "0.867 and 0.967"},
      {"measurement": "ELISA absorbance of sera", "setting": "bleed 3Y + 3 (1to1k), dilution 3,200, bleed 3Y + 3", "result": "0.621 and 0.629"},
      {"measurement": "ELISA absorbance of sera", "setting": "bleed 3Y + 3 (1to1k), dilution 6,400, bleed 3Y + 3", "result": 0.359}
    ]}
  ]
}
